In patent US12062444B2, “Methods and compositions related to triple-negative breast cancer” (THE UNIVERSITY OF CHICAGO, priority 2017, dated 2024):
“Also recorded” adds a separate entry of the source. Read-outs that look alike come from different tables or passages of the source.

Experiments:
[1] = tested on: GR chromatin association in MDA-MB-231 cells; test: GR ChIP-sequencing and analysis; format: cell-based, human; conditions: 100 nM each, 60 minutes, normalized to vehicle
Protocol: MDA-MB-231 cells were grown to 80% confluence in 15-cm dishes in DMEM with 10% FBS, followed by 48h in DMEM supplemented with 2.5% charcoal-stripped FBS. […] Cells were cross-linked with 1% formaldehyde, quenched with glycine (final concentration of […]), and harvested. After cell lysis with ChIP lysis buffer (Magna ChIP A Chromatin Immunoprecipitation Kit, EMD Millipore), cells were sonicated to achieve the majority of DNA fragments between 200-400 bp. Input samples were preserved at -80° C. […] Following manufacturer's protocol, chromatin was eluted from GR ChIP and input samples. Library build and sequencing was performed at the University of Oregon Genomics Core facility using the NextSeq 500 sequencer. Quality control on sequences and adapter sequencing trimming was performed using Kapa Biosystems Illumina Library Quantification Kit. ChIP-seq analysis was carried out using the Galaxy platform (usegalaxy.org (111)). […] GR peaks for each treatment were normalized to its own input control sample. […] Selected GR peak locations in hg19 and GR peak maps were also individually analyzed using Integrative Genomics Viewer, IGV (Broad Institute (116)).

[2] = tested on: GR-regulated gene expression in MDA-MB-231 cells; test: Gene expression microarray and analysis; format: cell-based, human
Protocol: MDA-MB-231 cells were grown to 80% confluence in 15-cm dishes in DMEM with 10% FBS. […] Following compound exposure, cells were washed in PBS, and lysed in RNA lysis buffer (Qiagen) overnight at -80° C. RNA extraction, with accompanying DNase treatment, was performed using the RNeasy kit (Qiagen) following the manufacturer's protocol. […] The University of Chicago Genomics Core facility carried out the reverse transcription on the samples, followed by microarray using the Affymetrix Human U133 Plus 2.0 platform. […] A principal components analysis (PCA) was performed using the prcomp function in R (Q-mode PCA using singular value decomposition). […] Dex-regulated genes were overlapped with a list of n=5,170 differentially-expressed tumor-derived genes (in the same direction) from GR-high versus GR-low BCs (52). Ingenuity Pathway Analysis (Qiagen) of the n=462 patient-relevant and antagonist-inhibited genes was performed to obtain Activation Z-scores of the most significant Diseases and Biofunctions (cell functions).

SUM-159-PT cells = conditions: Pac 10 nM, Dex 100 nM, C297 1 μM; 72 hours
Protocol: After compound treatment, cells were fixed in 10% trichloroacetic acid (TCA) at 4° C. overnight. […] Absorbance at λ=510 nm was measured, and relative percentage dead/alive cells was calculated based on minimal and maximal optical densities measured per plate. The experiment was performed in three biological replicates per cell line. P-values comparing the means of cell death percentages were obtained using the two-sample Student's t-test (Graphpad).

GR LBD = molecular target: T1, GR LBD (Homo sapiens, UniProt P04150); test: Ligand titration assay via fluorescence polarimetry (displacement of F-Dex); format: binding; conditions: for Fit of FP dose response curve (half-maximal FP signal): log(inhibitor) vs. normalized response, FIG. 7
T1 construct: The wild-type GR-LBD (amino acid residues 522-777) was cloned into a pFASTBAC plasmid; 6X-His (TEV-cleavable) (cleaved yes); made in house; host or cells: SF9 insect cells (baculovirus, pFASTBAC)
T1 sequence (P04150 522-777): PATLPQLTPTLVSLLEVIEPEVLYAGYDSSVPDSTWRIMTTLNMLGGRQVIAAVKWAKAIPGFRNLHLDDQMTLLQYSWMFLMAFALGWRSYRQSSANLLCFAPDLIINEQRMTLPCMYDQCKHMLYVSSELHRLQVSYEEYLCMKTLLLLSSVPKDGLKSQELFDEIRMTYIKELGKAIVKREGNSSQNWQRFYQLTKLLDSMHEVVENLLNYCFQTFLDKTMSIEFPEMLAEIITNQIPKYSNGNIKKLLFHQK
Protocol: SF9 insect cells were transfected with recombinant bacmid and virus (collected after 6 days) was amplified prior to protein expression. […] GR-LBD was purified first using Ni-affinity chromatography followed by overnight dialysis with TEV protease to remove the His tag. Extensive dialysis into 20 mM TRIS pH 8.0, 500 mM NaCl, 5% glycerol, 0.1% CHAPS, 0.25 mM TCEP was performed to obtain non-ligand-bound GR LBD. […] The purified proteins were concentrated to 5 mg/ml, flash frozen in 50 ul aliquots in N2(l), and stored at −80C.
GR LBD was diluted in assay buffer (20 mM TRIS pH 7.5, 50 mM NaCl, 0.25 mM TCEP) to a concentration of 50 nM. […] Triplicate FP measurements were scaled to maximal FP and averaged for each ligand concentration.

[3] = tested on: MDA-MB-231 tumor xenograft; test: Murine TNBC xenograft, tumor re-growth after treatment; format: in vivo, SCID mice
Protocol: MDA-MB-231 tumors were established in the right pectoral mammary gland of n=23 five- or six-week old female SCID mice (Taconic). Tumor volume was measured by caliper and then calculated using the elliptical volume equation (43). […] Tumor volume was measured by caliper until reaching a volume of approximately 2000 mm^3 or 40 days post-treatment initiation. Tumor data were analyzed using the repeated measures ANOVA using SigmaPlot 11.2 (Systat Software), and p-values between treatment groups over time were obtained using the Holm-Sidak post-hoc test.
Next, we studied the in vivo effect of GR activity in paclitaxel-treated GR+TNBC-bearing female SCID mice (n=23). MDA-MB-231 xenograft tumors were established subcutaneously in the mammary fat pad of 6-week old female mice. […] The mice were treated daily for five days with intraperitoneally with C297 (or vehicle), one hour prior to paclitaxel. The one-hour pre-treatment of the GR modulator was intended to compete with endogenous GC (murine corticosterone and cortisol (68)) bound to the tumor cell GR LBD. The 5 sequential dosing was selected to mimic an intensive adjuvant chemotherapy schedule often used in early-stage TNBC. Following cessation of the 5d treatment, time to tumor xenograft re-growth was measured as a readout for time to relapse post-treatment (43, 46).

[4] = at least 1.3 fold-change over vehicle, 100 nM each, 4, 8 and 12 hours combined

C[C@@H]1C[C@H]2[C@@H]3CCC4=CC(=O)C=C[C@]4(C)[C@@]3(F)[C@@H](O)C[C@]2(C)[C@@]1(O)C(=O)CO [Dex, dexamethasone]
Genome-wide GR peaks [1]: 8,448
Downregulated GC-mediated genes unique to Dex treatment ([2]; FIG. 9A): 41%
Downregulated GC-mediated genes unique to Dex treatment, number ([2]; FIG. 9A): 1321
Upregulated GC-mediated genes unique to Dex treatment ([2]; FIG. 9A): 50%
Upregulated GC-mediated genes unique to Dex treatment, number ([2]; FIG. 9A): 1363
Number of downregulated genes [2, 4]: 3,202
Number of upregulated genes [2, 4]: 2,719
Paclitaxel cytotoxicity (percentage cell death) (SUM-159-PT cells): dampened paclitaxel (10 nM) cytotoxicity
Paclitaxel cytotoxicity (percentage cell death) (MDA-MB-231 cells; Pac 10 nM, Dex 100 nM, C297 1 μM, 96 hours): dampened paclitaxel (10 nM) cytotoxicity

C[C@]12CCC(=O)C=C1CC[C@@H]1[C@@H]2[C@@H](O)C[C@@]2(C)[C@H]1CC[C@]2(O)C(=O)CO [cortisol]
Fit of FP dose response curve (half-maximal FP signal) (GR LBD): able to fit data

CCOC[C@]12Cc3cnn(-c4ccc(F)cc4)c3C=C1CCN(S(=O)(=O)c1ccc(C(F)(F)F)cc1)C2 [C297]
Genes for which both GR modulators antagonized GR induction or repression by at least 25% ([2]; 100 nM with 100 nM Dex): 3,066
Antagonized GR-regulated genes shared with the other antagonist ([2]; C297 versus Mif, 100 nM): 87%
Displacement of fluorescently-labeled Dex (F-Dex) from the GR LBD (GR LBD; 50 nM GR LBD, 10 nM F-Dex, ligand 0 to 4000 nM): low nM affinities
Fit of FP dose response curve (half-maximal FP signal) (GR LBD): able to fit data
Tumor re-growth with C297 monotherapy in vivo ([3]; C297/Veh versus vehicle control, FIG. 8B): not cytotoxic; also recorded: did not cause a significant delay in tumor re-growth
Paclitaxel cytotoxicity (percentage cell death) (SUM-159-PT cells): restored cytotoxic sensitivity; also recorded: modest, but significant, relative increase in paclitaxel cytotoxicity
Cell viability with C297 treatment alone in vitro (MDA-MB-231 cells; monotherapy, SRB assay, FIG. 8A, cell line not stated): not cytotoxic; also recorded: did not reduce cell viability

CC(=O)O[C@H]1C(=O)[C@@]2(C)[C@H]([C@H](OC(=O)c3ccccc3)[C@]3(O)C[C@H](OC(=O)[C@H](O)[C@@H](NC(=O)c4ccccc4)c4ccccc4)C(C)=C1C3(C)C)[C@]1(OC(C)=O)CO[C@@H]1C[C@@H]2O [Pac, paclitaxel]
Post-treatment tumor re-growth ([3]; C297 20 mg/kg/day one hour prior to pac 10 mg/kg/day, five days): significantly smaller than vehicle
Time to tumor re-growth to a 6× increase of tumor volume ([3]; C297 20 mg/kg/day one hour prior to pac 10 mg/kg/day, five days, i.p.): 27 days

C[C@]12CCC(=O)C[C@@H]1CC[C@@H]1[C@@H]2CC[C@]2(C)[C@@H](O)CC[C@@H]12 [DHT, dihydrotestosterone]
Displacement of fluorescently-labeled Dex (F-Dex) from the GR LBD (GR LBD): did not observe GC competition
